In patent publication US7846959B2, “Raf modulators and methods of use” (Exelixis, Inc., priority 2004, dated 2010):

Columns and labels:
c-Raf = c-Raf (Homo sapiens, UniProt P04049); assay: Luciferase-coupled chemiluminescence kinase assay (ATP consumption), c-Raf; format: biochemical; settings: read-out: cRaf-1 IC50
How it was run: (§1)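 Read-out: percent ATP consumed, quantified by luciferase/luciferin chemiluminescence after the kinase step. ATP consumption was held at 25-60%. Kinase ([…]) plus compound were preincubated 30 min at RT in Tris pH 7.5 buffer with MgCl2, Triton and DTT, then reacted with ATP for 3 h.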

B-Raf = B-Raf (Homo sapiens, UniProt P15056); assay: Luciferase-coupled chemiluminescence kinase assay (ATP consumption), B-Raf; format: biochemical; settings: read-out: bRaf IC50
How it was run: as §1

Chain of c-Raf (P04049 whole entry): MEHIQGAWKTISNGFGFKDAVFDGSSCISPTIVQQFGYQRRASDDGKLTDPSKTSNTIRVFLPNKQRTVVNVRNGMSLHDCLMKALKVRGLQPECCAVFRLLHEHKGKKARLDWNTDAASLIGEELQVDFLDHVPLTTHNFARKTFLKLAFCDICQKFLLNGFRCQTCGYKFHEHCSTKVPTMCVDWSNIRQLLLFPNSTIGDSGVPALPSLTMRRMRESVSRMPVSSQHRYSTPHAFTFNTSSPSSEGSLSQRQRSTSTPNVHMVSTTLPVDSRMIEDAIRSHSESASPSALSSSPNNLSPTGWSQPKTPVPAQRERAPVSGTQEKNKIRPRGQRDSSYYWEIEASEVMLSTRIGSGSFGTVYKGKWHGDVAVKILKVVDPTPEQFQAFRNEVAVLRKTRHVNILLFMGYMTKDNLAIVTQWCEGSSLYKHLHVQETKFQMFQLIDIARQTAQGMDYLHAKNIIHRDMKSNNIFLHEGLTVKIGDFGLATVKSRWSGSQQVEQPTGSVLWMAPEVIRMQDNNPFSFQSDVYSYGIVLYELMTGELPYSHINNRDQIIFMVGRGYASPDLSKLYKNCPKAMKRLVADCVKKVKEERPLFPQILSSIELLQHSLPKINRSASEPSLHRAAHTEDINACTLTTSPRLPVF
Chain of B-Raf (P15056 whole entry): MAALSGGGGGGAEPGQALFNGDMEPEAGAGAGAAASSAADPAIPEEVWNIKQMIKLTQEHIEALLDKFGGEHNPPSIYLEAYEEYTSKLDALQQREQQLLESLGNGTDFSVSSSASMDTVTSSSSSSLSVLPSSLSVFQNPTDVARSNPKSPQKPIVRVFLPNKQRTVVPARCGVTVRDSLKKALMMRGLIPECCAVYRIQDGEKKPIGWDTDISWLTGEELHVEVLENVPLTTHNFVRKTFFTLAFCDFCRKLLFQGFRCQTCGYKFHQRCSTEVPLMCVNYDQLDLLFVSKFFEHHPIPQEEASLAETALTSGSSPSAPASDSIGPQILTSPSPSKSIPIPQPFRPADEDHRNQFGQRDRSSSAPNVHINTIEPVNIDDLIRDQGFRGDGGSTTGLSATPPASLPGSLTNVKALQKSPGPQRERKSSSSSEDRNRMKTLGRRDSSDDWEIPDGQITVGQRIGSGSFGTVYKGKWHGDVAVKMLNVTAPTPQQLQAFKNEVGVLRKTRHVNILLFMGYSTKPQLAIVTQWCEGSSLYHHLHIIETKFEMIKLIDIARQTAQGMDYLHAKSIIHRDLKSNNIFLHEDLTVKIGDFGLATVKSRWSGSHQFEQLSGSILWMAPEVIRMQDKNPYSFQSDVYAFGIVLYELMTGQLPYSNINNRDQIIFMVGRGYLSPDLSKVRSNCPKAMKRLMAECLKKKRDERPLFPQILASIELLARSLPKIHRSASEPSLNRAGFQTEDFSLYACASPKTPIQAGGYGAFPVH

SMILES | IC50 (c-Raf) | IC50 (B-Raf)
COC(=O)Nc1nc2cc(C3(O)c4ccccc4C(=O)N3CCc3ccccc3)ccc2[nH]1 (stereo not drawn) [Entry 99, methyl {5-[1-hydroxy-3-oxo-2-(2-phenylethyl)-2,3-dihydro-1H-isoindol-1-yl]-1H-benzimidazol-2-yl}carbamate] | 1 to 10 µM | 1 to 10 µM
CC(C)(C)n1c(N)nc2cc(C3(O)c4ccccc4C(=O)N3Cc3ccccc3)ccc21 (stereo not drawn) [Entry 100, 3-[2-amino-1-(1,1-dimethylethyl)-1H-benzimidazol-5-yl]-3-hydroxy-2-(phenylmethyl)-2,3-dihydro-1H-isoindol-1-one] | ≥ 10 µM | ≥ 10 µM
Nc1nc2cc(C3(O)c4ccccc4C(=O)N3Cc3ccccc3)ccc2[nH]1 (stereo not drawn) [Entry 101, 3-(2-amino-1H-benzimidazol-5-yl)-3-hydroxy-2-(phenylmethyl)-2,3-dihydro-1H-isoindol-1-one] | 1 to 10 µM | 1 to 10 µM
COC(=O)Nc1nc2cc(C3(O)NC(=O)c4ccccc43)ccc2[nH]1 (stereo not drawn) [Entry 102, methyl [5-(1-hydroxy-3-oxo-2,3-dihydro-1H-isoindol-1-yl)-1H-benzimidazol-2-yl]carbamate] | ≥ 10 µM | ≥ 10 µM
COC(=O)Nc1nc2cc(C3(O)c4ccccc4C(=O)N3[C@@H](C)c3ccccc3)ccc2[nH]1 (stereo partly drawn) [Entry 105, methyl (5-{1-hydroxy-3-oxo-2-[(1S)-1-phenylethyl]-2,3-dihydro-1H-isoindol-1-yl}-1H-benzimidazol-2-yl)carbamate] | 1 to 10 µM | 1 to 10 µM
COC(=O)Nc1nc2ccc(C3(O)c4ccccc4C(=O)N3Cc3ccccc3)cc2n1C (stereo not drawn) [Entry 107, methyl {6-[1-hydroxy-3-oxo-2-(phenylmethyl)-2,3-dihydro-1H-isoindol-1-yl]-1-methyl-1H-benzimidazol-2-yl}carbamate] | ≥ 10 µM | ≥ 10 µM
COC(=O)Nc1nc2cc(C3(O)c4ccccc4C(=O)N3C3Cc4ccccc4C3)ccc2[nH]1 (stereo not drawn) [Entry 111, methyl {5-[2-(2,3-dihydro-1H-inden-2-yl)-1-hydroxy-3-oxo-2,3-dihydro-1H-isoindol-1-yl]-1H-benzimidazol-2-yl}carbamate] | ≥ 10 µM | ≥ 10 µM
COC(=O)Nc1nc2cc(C3(O)c4ccccc4C(=O)N3Cc3ccncc3)ccc2[nH]1 (stereo not drawn) [Entry 112, methyl {5-[1-hydroxy-3-oxo-2-(pyridin-4-ylmethyl)-2,3-dihydro-1H-isoindol-1-yl]-1H-benzimidazol-2-yl}carbamate] | 1 to 10 µM | ≥ 10 µM
COC(=O)Nc1nc2cc(C3(O)c4ccccc4C(=O)N3Cc3ccccc3OC)ccc2[nH]1 (stereo not drawn) [Entry 116, methyl [5-(1-hydroxy-2-{[2-(methyloxy)phenyl]methyl}-3-oxo-2,3-dihydro-1H-isoindol-1-yl)-1H-benzimidazol-2-yl]carbamate] | 1 to 10 µM | 1 to 10 µM
COC(=O)Nc1nc2cc(C3(O)c4ccccc4C(=O)N3Cc3ccc(OC)cc3)ccc2[nH]1 (stereo not drawn) [Entry 118, methyl [5-(1-hydroxy-2-{[4-(methyloxy)phenyl]methyl}-3-oxo-2,3-dihydro-1H-isoindol-1-yl)-1H-benzimidazol-2-yl]carbamate] | ≥ 10 µM | ≥ 10 µM
COC(=O)Nc1nc2cc(C3(O)c4ccccc4C(=O)N3Cc3cccc(I)c3)ccc2[nH]1 (stereo not drawn) [Entry 121, methyl (5-{1-hydroxy-2-[(3-iodophenyl)methyl]-3-oxo-2,3-dihydro-1H-isoindol-1-yl}-1H-benzimidazol-2-yl)carbamate] | 0.1 to 1 µM | 0.1 to 1 µM
COC(=O)Nc1nc2cc(C3(O)c4ccccc4C(=O)N3Cc3ccccn3)ccc2[nH]1 (stereo not drawn) [Entry 124, methyl {5-[1-hydroxy-3-oxo-2-(pyridin-2-ylmethyl)-2,3-dihydro-1H-isoindol-1-yl]-1H-benzimidazol-2-yl}carbamate] | 0.1 to 1 µM | 0.1 to 1 µM
COC(=O)Nc1nc2cc(C3(O)c4ccccc4C(=O)N3c3ccc(OC)cc3)ccc2[nH]1 (stereo not drawn) [Entry 128, methyl (5-{1-hydroxy-2-[4-(methyloxy)phenyl]-3-oxo-2,3-dihydro-1H-isoindol-1-yl}-1H-benzimidazol-2-yl)carbamate] | 1 to 10 µM | 1 to 10 µM

Next, values leading:

IC50 (c-Raf) | IC50 (B-Raf) | SMILES
< 0.1 µM | < 0.1 µM | COC(C)CCOC(=O)Nc1nc2cc(C3(O)c4ccccc4C(=O)N3Cc3ccccc3)ccc2[nH]1 (stereo not drawn) [Entry 103, 3-(methyloxy)butyl {5-[1-hydroxy-3-oxo-2-(phenylmethyl)-2,3-dihydro-1H-isoindol-1-yl]-1H-benzimidazol-2-yl}carbamate]
< 0.1 µM | < 0.1 µM | COC(=O)Nc1nc2cc(C3(O)c4ccccc4C(=O)N3[C@H](C)c3ccccc3)ccc2[nH]1 (stereo partly drawn) [Entry 104, methyl (5-{1-hydroxy-3-oxo-2-[(1R)-1-phenylethyl]-2,3-dihydro-1H-isoindol-1-yl}-1H-benzimidazol-2-yl)carbamate]
< 0.1 µM | < 0.1 µM | COCCOC(=O)Nc1nc2cc(C3(O)c4ccccc4C(=O)N3Cc3ccccc3)ccc2[nH]1 (stereo not drawn) [Entry 106, 2-(methyloxy)ethyl {5-[1-hydroxy-3-oxo-2-(phenylmethyl)-2,3-dihydro-1H-isoindol-1-yl]-1H-benzimidazol-2-yl}carbamate]
< 0.1 µM | < 0.1 µM | C#CCOC(=O)Nc1nc2cc(C3(O)c4ccccc4C(=O)N3Cc3ccccc3)ccc2[nH]1 (stereo not drawn) [Entry 108, prop-2-yn-1-yl {5-[1-hydroxy-3-oxo-2-(phenylmethyl)-2,3-dihydro-1H-isoindol-1-yl]-1H-benzimidazol-2-yl}carbamate]
< 0.1 µM | < 0.1 µM | CC#CCOC(=O)Nc1nc2cc(C3(O)c4ccccc4C(=O)N3Cc3ccccc3)ccc2[nH]1 (stereo not drawn) [Entry 109, but-2-yn-1-yl {5-[1-hydroxy-3-oxo-2-(phenylmethyl)-2,3-dihydro-1H-isoindol-1-yl]-1H-benzimidazol-2-yl}carbamate]
< 0.1 µM | < 0.1 µM | CC(C)OC(=O)Nc1nc2cc(C3(O)c4ccccc4C(=O)N3Cc3ccccc3)ccc2[nH]1 (stereo not drawn) [Entry 110, 1-methylethyl {5-[1-hydroxy-3-oxo-2-(phenylmethyl)-2,3-dihydro-1H-isoindol-1-yl]-1H-benzimidazol-2-yl}carbamate]
0.1 to 1 µM | 0.1 to 1 µM | COC(=O)Nc1nc2cc(C3(O)c4ccccc4C(=O)N3Cc3cccnc3)ccc2[nH]1 (stereo not drawn) [Entry 113, methyl {5-[1-hydroxy-3-oxo-2-(pyridin-3-ylmethyl)-2,3-dihydro-1H-isoindol-1-yl]-1H-benzimidazol-2-yl}carbamate]
< 0.1 µM | < 0.1 µM | COC(=O)Nc1nc2ccc(C3(O)c4ccccc4C(=O)N3Cc3cccc(F)c3)cc2[nH]1 (stereo not drawn) [Entry 114, methyl (6-{2-[(3-fluorophenyl)methyl]-1-hydroxy-3-oxo-2,3-dihydro-1H-isoindol-1-yl}-1H-benzimidazol-2-yl)carbamate]
< 0.1 µM | < 0.1 µM | COC(=O)Nc1nc2cc(C3(O)c4ccccc4C(=O)N3c3cccc(C)c3)ccc2[nH]1 (stereo not drawn) [Entry 115, methyl {5-[1-hydroxy-2-(3-methylphenyl)-3-oxo-2,3-dihydro-1H-isoindol-1-yl]-1H-benzimidazol-2-yl}carbamate]
0.1 to 1 µM | 0.1 to 1 µM | COC(=O)Nc1nc2cc(C3(O)c4ccccc4C(=O)N3Cc3cccc(OC)c3)ccc2[nH]1 (stereo not drawn) [Entry 117, methyl [5-(1-hydroxy-2-{[3-(methyloxy)phenyl]methyl}-3-oxo-2,3-dihydro-1H-isoindol-1-yl)-1H-benzimidazol-2-yl]carbamate]
0.1 to 1 µM | 0.1 to 1 µM | COC(=O)Nc1nc2ccc(C3(O)c4ccccc4C(=O)N3Cc3ccc(F)cc3)cc2[nH]1 (stereo not drawn) [Entry 119, methyl (6-{2-[(4-fluorophenyl)methyl]-1-hydroxy-3-oxo-2,3-dihydro-1H-isoindol-1-yl}-1H-benzimidazol-2-yl)carbamate]
< 0.1 µM | < 0.1 µM | COC(=O)Nc1nc2ccc(C3(O)c4ccccc4C(=O)N3Cc3cccc(Br)c3)cc2[nH]1 (stereo not drawn) [Entry 120, methyl (6-{2-[(3-bromophenyl)methyl]-1-hydroxy-3-oxo-2,3-dihydro-1H-isoindol-1-yl}-1H-benzimidazol-2-yl)carbamate]
< 0.1 µM | < 0.1 µM | COC(=O)Nc1nc2cc(C3(O)c4ccccc4C(=O)N3Cc3cccc(Cl)c3)ccc2[nH]1 (stereo not drawn) [Entry 122, methyl (5-{2-[(3-chlorophenyl)methyl]-1-hydroxy-3-oxo-2,3-dihydro-1H-isoindol-1-yl}-1H-benzimidazol-2-yl)carbamate]
< 0.1 µM | < 0.1 µM | COC(=O)Nc1nc2cc(C3(O)c4ccccc4C(=O)N3Cc3ccccc3F)ccc2[nH]1 (stereo not drawn) [Entry 123, methyl (5-{2-[(2-fluorophenyl)methyl]-1-hydroxy-3-oxo-2,3-dihydro-1H-isoindol-1-yl}-1H-benzimidazol-2-yl)carbamate]
< 0.1 µM | < 0.1 µM | O=C(Nc1nc2cc(C3(O)c4ccccc4C(=O)N3Cc3ccccc3)ccc2[nH]1)OCc1ccccc1 (stereo not drawn) [Entry 125, phenylmethyl {5-[1-hydroxy-3-oxo-2-(phenylmethyl)-2,3-dihydro-1H-isoindol-1-yl]-1H-benzimidazol-2-yl}carbamate]
< 0.1 µM | < 0.1 µM | O=C(Nc1nc2cc(C3(O)c4ccccc4C(=O)N3Cc3ccccc3)ccc2[nH]1)OCCF (stereo not drawn) [Entry 126, 2-fluoroethyl {5-[1-hydroxy-3-oxo-2-(phenylmethyl)-2,3-dihydro-1H-isoindol-1-yl]-1H-benzimidazol-2-yl}carbamate]
< 0.1 µM | < 0.1 µM | CCCOC(=O)Nc1nc2cc(C3(O)c4ccccc4C(=O)N3Cc3ccccc3)ccc2[nH]1 (stereo not drawn) [Entry 127, propyl {5-[1-hydroxy-3-oxo-2-(phenylmethyl)-2,3-dihydro-1H-isoindol-1-yl]-1H-benzimidazol-2-yl}carbamate]
